This is an account of results in patent publication US12552758B2, “Inhibitors of MLH1 and/or PMS2 for cancer treatment” (NeoPhore Limited, priority 2020, dated 2026).

Where only a bound is given, the exact number is not on record here.

Test [1] has as its target recombinant N-terminal MLH1 (residues 15-340) (Homo sapiens (Human), UniProt P40692). Nature of the test: Fluorescence polarisation assay for MLH1 (protocol for all Examples except Examples 64, 76, 90 and 95). It is filed as binding. Conditions: FP probe displacement; 100 nM N-terminal MLH1, 5 nM probe compound, read after 15 minutes; all Examples except 64, 76, 90 and 95. The method, then: Fluorescence Polarisation Assay for MLH1 (Protocol for all Examples Except Examples 64, 76, 90 and 95)
(§1) Test compounds, as 10 mM DMSO stocks, were dispensed into a Black Fluotrac 200 384 well medium binding plate (Greiner Bio-One, item number 781076) using a Labcyte Echo acoustic liquid handler. For single point screening, test compounds were added to wells in columns 1-22 whilst DMSO was added to wells in columns 23 and 24 in order to normalise the plate. For potency determination, serial dilutions of test compounds were added to wells in columns 3-22 and DMSO volume was normalised across the plate.
20 μL assay buffer was added to all wells in columns 1 and 24 (column 24 only for single point screening) using a MultiDrop Combi (ThermoFisher). Plates were centrifuged for 1 minute at 250×g and were incubated at room temperature for 30 minutes prior to the addition of 20 μL of 2×(10 nM) of 5-((5-(4-((2-(2,4-dihydroxy-5-isopropylbenzoyl)isoindolin-5-yl)methyl)piperazin-1-yl)pentyl)carbamoyl)-2-(6-(dimethylamino)-3-(dimethyliminio)-3H-xanthen-9-yl)benzoate (referred to hereinafter as “probe compound”) in assay buffer (prepared from a 100 μM DMSO stock) with a MultiDrop Combi (ThermoFisher). The final concentration of N-terminal MLH1 was 100 nM and the final concentration of probe compound was 5 nM.
Compound plates were centrifuged for 1 minute at 250×g for 1 minute and were incubated at room temperature for 15 minutes before being read on a PheraStar FSX (fitted with 384-well aperture spoon and 540 590 590 FP optic module). The gain and focus were adjusted before each plate was read so that the polarisation of a no enzyme control (column 24) was equal to 35 mP. Data were normalised against the no inhibitor controls (column 23) and no enzyme controls (column 24).

Test [2] concerns the target recombinant N-terminal PMS2 (residues 1-365) (Homo sapiens (Human), UniProt P54278). Nature of the test: Fluorescence polarisation assay for PMS2. Format: binding. The conditions noted are these: FP probe displacement; 10 nM N-terminal PMS2, 5 nM probe compound, read after 1 hour. Here is the method:
Fluorescence Polarisation Assay for PMS2
as §1
20 μL assay buffer was added to all wells in columns 1 and 24 (column 24 only for single point screening) using a MultiDrop Combi (ThermoFisher). Plates were centrifuged for 1 minute at 250×g and were incubated at room temperature for 30 minutes prior to the addition of 20 μL of 2×([…]) of 5-((5-(4-((2-(2,4-dihydroxy-5-isopropylbenzoyl)isoindolin-5-yl)methyl)piperazin-1-yl)pentyl)carbamoyl)-2-(6-(dimethylamino)-3-(dimethyliminio)-3H-xanthen-9-yl)benzoate (referred to hereinafter as “probe compound”) in assay buffer (prepared from a 100 μM DMSO stock) with a MultiDrop Combi (ThermoFisher). The final concentration of N-terminal PMS2 was 10 nM and the final concentration of probe compound was 5 nM.
Compound plates were centrifuged for 1 minute at 250×g for 1 minute and were incubated at room temperature for 1 hour before being read on a PheraStar FSX (fitted with 384-well aperture spoon and 540 590 590 FP optic module). The gain and focus were adjusted before each plate was read so that the polarisation of a no enzyme control (column 24) was equal to 35 mP. Data were normalised against the no inhibitor controls (column 23) and no enzyme controls (column 24).

Sequence of recombinant N-terminal PMS2 (residues 1-365) (P54278 1-365): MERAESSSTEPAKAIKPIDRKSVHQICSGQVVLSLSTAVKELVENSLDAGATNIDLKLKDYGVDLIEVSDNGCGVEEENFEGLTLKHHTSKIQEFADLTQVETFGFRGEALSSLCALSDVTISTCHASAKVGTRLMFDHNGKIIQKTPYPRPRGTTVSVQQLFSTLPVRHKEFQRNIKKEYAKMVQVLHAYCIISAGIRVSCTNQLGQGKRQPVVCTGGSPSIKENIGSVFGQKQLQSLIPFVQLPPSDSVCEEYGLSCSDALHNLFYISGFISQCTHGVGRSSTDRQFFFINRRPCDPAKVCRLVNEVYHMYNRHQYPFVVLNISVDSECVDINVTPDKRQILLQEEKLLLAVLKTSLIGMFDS
Sequence of recombinant N-terminal MLH1 (residues 15-340) (P40692 15-340): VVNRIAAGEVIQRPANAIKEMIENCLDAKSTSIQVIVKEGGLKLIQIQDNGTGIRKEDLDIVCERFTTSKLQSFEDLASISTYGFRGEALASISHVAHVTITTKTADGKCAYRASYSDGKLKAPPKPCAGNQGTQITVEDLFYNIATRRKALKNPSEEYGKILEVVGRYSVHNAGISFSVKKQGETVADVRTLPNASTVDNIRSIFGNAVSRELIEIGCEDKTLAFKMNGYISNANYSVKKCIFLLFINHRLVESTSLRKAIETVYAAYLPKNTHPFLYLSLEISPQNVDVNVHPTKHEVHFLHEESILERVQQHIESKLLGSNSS

For `Cc1c(O)cc(O)c(C(=O)N2CCc3cncnc3C2)c1OCc1ccccc1` [Example 56, (2-(benzyloxy)-4,6-dihydroxy-3-methylphenyl)(5,8-dihydropyrido[3,4-d]pyrimidin-7(6H)-yl)methanone], the values for the IC50 in test [1] and in test [2] were more than 10 µM and 1000 to 10000 nM, respectively.
In the same order, the values of `Cc1c(O)cc(O)c(C(=O)N2CCc3ccccc3C2)c1OCc1ccn(C)n1` [Example 57, (3,4-dihydroisoquinolin-2(1H)-yl)(4,6-dihydroxy-3-methyl-2-((1-methyl-1H-pyrazol-3-yl)methoxy)phenyl)methanone] are more than 10 µM and more than 10000 nM.
Turning to `O=C(c1c(O)cc(O)cc1OCc1ccccc1)N1CCc2ccccc2C1` [Example 58, (2-(benzyloxy)-4,6-dihydroxyphenyl)(3,4-dihydroisoquinolin-2(1H)-yl)methanone], the IC50 in test [1] is 1 to 10 µM; in test [2], 1000 to 10000 nM.
Taken in the same sequence, the figures for `Cc1c(O)cc(O)c(C(=O)N2Cc3ccccc3C2)c1OCc1ccccc1` [Example 59, (2-(benzyloxy)-4,6-dihydroxy-3-methylphenyl)(isoindolin-2-yl)methanone] were more than 10 µM and less than 1000 nM.
For the compound `Cc1c(O)cc(O)c(C(=O)N2CCc3ccc(CN(C)C)cc3C2)c1OCc1ccccc1` [Example 60, (2-(benzyloxy)-4,6-dihydroxy-3-methylphenyl)(7-((dimethylamino)methyl)-3,4-dihydroisoquinolin-2(1H)-yl)methanone], the results for the IC50 in test [1] and in test [2] were more than 10 µM and less than 1000 nM, respectively.
For `Cc1c(O)cc(O)c(C(=O)N2CCc3cc(CN(C)C)ccc3C2)c1OCc1ccccc1` [Example 61, (2-(benzyloxy)-4,6-dihydroxy-3-methylphenyl)(6-((dimethylamino)methyl)-3,4-dihydroisoquinolin-2(1H)-yl)methanone], the IC50 is more than 10 µM in test [1] and less than 1000 nM in test [2].
`Cc1c(O)cc(O)c(C(=O)N2Cc3ccccc3C[C@H]2CO)c1OCc1ccccc1` [Example 62, (S)-(2-(Benzyloxy)-4,6-dihydroxy-3-methylphenyl)(3-(hydroxymethyl)-3,4-dihydroisoquinolin-2(1H)-yl)methanone]: the IC50 in test [1] was more than 10 µM; in test [2] it was 1000 to 10000 nM.
On to `Cc1c(O)cc(O)c(C(=O)N2Cc3ccccc3C2CO)c1OCc1ccccc1` (stereo not shown) [Example 63, (2-(benzyloxy)-4,6-dihydroxy-3-methylphenyl)(1-(hydroxymethyl)isoindolin-2-yl)methanone], for which the results for the IC50 in test [1] and in test [2] were more than 10 µM and 1000 to 10000 nM, respectively.
In the same order, the values of `Cc1c(O)cc(O)c(C(=O)N2CCc3ccccc3C2CO)c1OCc1ccccc1` (stereo not shown) [Example 65, (2-(Benzyloxy)-4,6-dihydroxy-3-methylphenyl)(1-(hydroxymethyl)-3,4-dihydroisoquinolin-2(1H)-yl)methanone] are more than 10 µM and more than 10000 nM.
For `Cc1c(O)cc(O)c(C(=O)N2Cc3ccccc3C(CO)C2)c1OCc1ccccc1` (stereo not shown) [Example 66, (2-(Benzyloxy)-4,6-dihydroxy-3-methylphenyl)(4-(hydroxymethyl)-3,4-dihydroisoquinolin-2(1H)-yl)methanone], the results for the IC50 in test [1] and in test [2] were more than 10 µM and 1000 to 10000 nM, respectively.
In the same order, the values of `Cc1c(O)cc(O)c(C(=O)N2Cc3ccc(CN(C)C)cc3C2)c1OCc1ccccc1` [Example 68, (2-(Benzyloxy)-4,6-dihydroxy-3-methylphenyl)(5-((dimethylamino)methyl)isoindolin-2-yl)methanone] are more than 10 µM and less than 1000 nM.
For `Cc1c(O)cc(O)c(C(=O)N2Cc3ccc(CN4CCOCC4)cc3C2)c1OCc1ccccc1` [Example 69, (2-(Benzyloxy)-4,6-dihydroxy-3-methylphenyl)(5-(morpholinomethyl)isoindolin-2-yl)methanone], the values for the IC50 in test [1] and in test [2] were more than 10 µM and less than 1000 nM, respectively.
In the same order, the values of `Cc1c(O)cc(O)c(C(=O)N2CCc3ccccc32)c1OCc1ccccc1` [Example 70, (2-(Benzyloxy)-4,6-dihydroxy-3-methylphenyl)(indolin-1-yl)methanone] are more than 10 µM and 1000 to 10000 nM.
In the same order, the values of `O=C(c1c(O)cc(O)cc1OCc1ccccc1)N1CCc2ccccc21` [Example 71, (2-(Benzyloxy)-4,6-dihydroxyphenyl)(indolin-1-yl)methanone] are 1 to 10 µM and 1000 to 10000 nM.
In the same order, the values of `Cc1c(O)cc(O)c(C(=O)N2CCCc3ccccc32)c1OCc1ccccc1` [Example 72, (2-(Benzyloxy)-4,6-dihydroxy-3-methylphenyl)(3,4-dihydroquinolin-1(2H)-yl)methanone] are more than 10 µM and 1000 to 10000 nM.
Regarding `O=C(c1c(O)cc(O)cc1OCc1ccccc1)N1CCCc2ccccc21` [Example 73, (2-(Benzyloxy)-4,6-dihydroxyphenyl)(3,4-dihydroquinolin-1(2H)-yl)methanone], the IC50 in test [1] is 1 to 10 µM; in test [2], 1000 to 10000 nM.
With `Cc1c(O)cc(O)c(C(=O)N2Cc3ccncc3C2)c1OCc1ccccc1` [Example 74, (2-(Benzyloxy)-4,6-dihydroxy-3-methylphenyl)(1,3-dihydro-2H-pyrrolo[3,4-c]pyridin-2-yl)methanone], the results for the IC50 in test [1] and in test [2] were more than 10 µM and less than 1000 nM, respectively.
In the same order, the values of `Cc1c(O)cc(O)c(C(=O)N2Cc3cccc(CN4CCN(C)CC4)c3C2)c1OCc1ccccc1` [Example 75, (2-(Benzyloxy)-4,6-dihydroxy-3-methylphenyl)(4-((4-methylpiperazin-1-yl)methyl)isoindolin-2-yl)methanone] are more than 10 µM and less than 1000 nM.
Regarding `Cc1c(O)cc(O)c(C(=O)N2CCc3ccc(C(=O)N(C)C)cc3C2)c1OCc1ccccc1` [Example 77, 2-(2-(Benzyloxy)-4,6-dihydroxy-3-methylbenzoyl)-N,N-dimethyl-1,2,3,4-tetrahydroisoquinoline-7-carboxamide], the figures for the half-maximal inhibitory concentration (IC50) in test [1] and in test [2] were more than 10 µM and less than 1000 nM, respectively.
In the same order, the values of `Cc1c(O)cc(O)c(C(=O)N2CCc3cc(C(=O)N(C)C)ccc3C2)c1OCc1ccccc1` [Example 78, 2-(2-(benzyloxy)-4,6-dihydroxy-3-methylbenzoyl)-N,N-dimethyl-1,2,3,4-tetrahydroisoquinoline-6-carboxamide] are more than 10 µM and less than 1000 nM.
In the same order, the values of `Cc1c(O)cc(O)c(C(=O)N2Cc3cccc(NC4CCOC4)c3C2)c1OCc1ccccc1` (stereo not shown) [Example 79, (2-(Benzyloxy)-4,6-dihydroxy-3-methylphenyl)(4-((tetrahydrofuran-3-yl)amino)isoindolin-2-yl)methanone] are more than 10 µM and less than 1000 nM.
In the case of `Cc1c(O)cc(O)c(C(=O)N2Cc3cccc(NC4COC4)c3C2)c1OCc1ccccc1` [Example 80, (2-(Benzyloxy)-4,6-dihydroxy-3-methylphenyl)(4-(oxetan-3-ylamino)isoindolin-2-yl)methanone], the values for the IC50 in test [1] and in test [2] were 1 to 10 µM and less than 1000 nM, respectively.
Taken in the same sequence, the figures for `Cc1c(O)cc(O)c(C(=O)N2Cc3cccc(N4CCCC(O)C4)c3C2)c1OCc1ccccc1` (stereo not shown) [Example 81, (2-(Benzyloxy)-4,6-dihydroxy-3-methylphenyl)(4-(3-hydroxypiperidin-1-yl)isoindolin-2-yl)methanone] were more than 10 µM and less than 1000 nM.
